Data on six compounds can be found in ChEMBL document CHEMBL1221242, “Design and synthesis of HCV agents with sequential triple inhibitory potentials” (2010).

SMILES strings stand for the structures.

The test system of experiment [1] is Hepatitis C virus. The experiment can be described thus: Antiviral activity against HCV infected in human BB7 cells assessed as inhibition of viral replication after 3 days relative to HCV-796. The class given is functional, Hepacivirus hominis.
Another experiment concerns Hepacivirus hominis. In words: Ratio of inhibition of HCV 1b NS5B Cdelta21 polymerase to inhibition of HCV relative to HCV-796.
The subject of experiment [2] is Hepatitis C virus. The experiment can be described thus: Inhibition of HCV 1b NS5B Cdelta21 polymerase expressed in Escherichia coli assessed as inhibition of [alpha-33P]GTP incorporation into RNA relative to HCV-796. Also noted: species or system Hepatitis C virus subtype 1b.

As for `CNC(=O)c1c(-c2ccc(F)cc2)oc2cc(N(CCOP(=O)(O)OC[C@H]3O[C@@H](n4cnc(C(N)=O)n4)[C@H](O)[C@@H]3O)S(C)(=O)=O)c(C3CC3)cc12`, the Ratio in the experiment with Hepatitis C virus [1] came to 7.3; in the experiment on Hepacivirus hominis, 1.18; in the experiment with Hepatitis C virus [2] it was 6.2.

Turning to `CNC(=O)c1c(-c2ccc(F)cc2)oc2cc(N(CCOC(=O)CCC(=O)OC[C@H]3O[C@@H](n4cnc(C(N)=O)n4)[C@@H]4OC(C)(C)O[C@@H]43)S(C)(=O)=O)c(C3CC3)cc12`, the Ratio is 13 in the experiment on Hepatitis C virus [1], 0.31 with Hepacivirus hominis and 42 in the experiment with Hepatitis C virus [2].

`CNC(=O)c1c(-c2ccc(F)cc2)oc2cc(N(CCOP(=O)(O)O)S(C)(=O)=O)c(C3CC3)cc12`: the Ratio in the experiment on Hepatitis C virus [1] worked out at 8.9; in the experiment on Hepacivirus hominis, 22.2; with Hepatitis C virus [2], 0.4.

Take `CNC(=O)c1c(-c2ccc(F)cc2)oc2cc(N(CCOP(=O)(O)OC[C@H]3O[C@@H](n4cnc(C(N)=O)n4)[C@@H]4OC(C)(C)O[C@@H]43)S(C)(=O)=O)c(C3CC3)cc12`: the Ratio in the experiment with Hepatitis C virus [1] amounted to 18.6; with Hepacivirus hominis, 1.57; with Hepatitis C virus [2], 11.8.

As to `CNC(=O)c1c(-c2ccc(F)cc2)oc2cc(N(CCO)S(C)(=O)=O)c(C3CC3)cc12` [NESBUVIR], the Ratio in the experiment with Hepatitis C virus [1], in the experiment with Hepacivirus hominis and in the experiment with Hepatitis C virus [2] was 1 throughout.

As to `CNC(=O)c1c(-c2ccc(F)cc2)oc2cc(N(CCOC(=O)CCC(=O)OC[C@H]3O[C@@H](n4cnc(C(N)=O)n4)[C@H](O)[C@@H]3O)S(C)(=O)=O)c(C3CC3)cc12`, the values for the Ratio in the experiment with Hepatitis C virus [1], in the experiment with Hepacivirus hominis and in the experiment with Hepatitis C virus [2] were 6.2, 0.28 and 22, respectively.
